Experimental data as given in patent US11857601B2, “Pharmaceutical composition for cancer treatment comprising fusion protein including IL-2 protein and CD80 protein and anticancer drug” (GI INNOVATION, INC., priority 2020, dated 2024).

What was measured:
human PBMCs = experiment: IFN-γ production in PHA-treated CFSE-labeled PBMCs (ELISA); format: cell-based; details: PBMCs + PHA 5 μg/ml; 1, 10 or 100 nM; 6 days; compared with GI101C1, GI101C2 or IL-2
Procedure: Peripheral blood mononuclear cells (PBMCs) isolated from a human were labeled with carboxyfluorescein succinimidyl ester (CFSE) by being reacted with 1 μM CellTrace CFSE dye at 37° C. for 20 minutes. CFSE not bound to the cells was removed by being reacted for 5 minutes with a culture medium having a 5-fold volume of the staining reaction solution and then by being centrifuged at 1,300 rpm for 5 minutes. […]
The cells were analyzed by FACS, and human IFN-γ present in the culture medium was measured using an ELISA kit (Biolegend, San Diego, CA, USA, cat No. 430103).
The amount of human IFN-γ secreted into the supernatant of each sample in which the cells had been cultured was measured using a human IFN-γ ELISA kit (Biolegend, cat No. 430103). […]
After the reaction was completed, the plate was washed and secondary antibodies (detection antibodies) were added thereto. […] Finally, […] was added thereto to stop the color development reaction, and the absorbance at 450 nm was measured with Epoch Microplate Spectrophotometer (BioTek instruments, Winooski, VT, USA), and the concentration was calculated.

MDA-MB-231 cells = experiment: GI101 and Keytruda in humanized mice xenotransplanted with MDA-MB-231; format: in vivo, human
Procedure: Fetal bovine serum (FBS, 16000-044, Thermofisher scientific, USA), penicillin-streptomycin; 10,000 units/ml penicillin and 10,000 μg/ml streptomycin (15140122, Thermofisher scientific, USA); and RPMI1640 (A1049101, Thermofisher scientific, USA) per 100 ml were mixed and used.
The cells were suspended using Trypsin-EDTA (Cat. 25200-072, Thermofisher scientific, USA). The suspended cells were collected by centrifugation (125×g, 5 minutes) using a centrifuge, transferred to a new medium and a new flask, and passage cultured. The cultured cells were put to a centrifugation tube on the day of cell line transplantation and then collected. […] 8-week-old female NSGb2m (NOD.Cg-B2m^tm1UncPrkdc^scidIl2rg^tm1Wjl/SzJ) mice were purchased from Joongang Bio (Korea) and used for the test. The body weight was measured the next day after the end of the quarantine and acclimation period, and then the human-derived PBMC cell suspension (5×10^6 cells/0.2 ml) prepared for healthy animals was filled into a disposable syringe and administered to the caudal vein of the animals. General symptoms were observed once a day after cell transplantation.
A certain period of time after the cell transplantation, the tumor volume was measured for animals with no abnormalities in the health condition of the animals, and 32 subjects were selected so that the average of each group reached 40 to 80 mm^3. The selected animals were grouped into a total of 4 groups as evenly as possible based on tumor volume and body weight, each group including 8 animals.
General symptoms such as appearance, behavior, and excrement were observed once a day during the observation period, and deceased animals were identified. Body weight was measured on the day of cell line transplantation, twice a week, and on the day of animal sacrifice. The major axis (maximum length, L) and minor axis (perpendicular width, W) of the tumor were measured using a caliper (Digital caliper, mitutoyo, Japan) three times a week during the observation period, and the tumor volume (TV) was calculated by substituting them into the following equations.
The tumor volume before administration of each subject was set as the value measured at the time of grouping.

MC38 cells = experiment: mGI-101 and DMXAA in MC38 allotransplanted tumor model; format: in vivo, C57BL/6 mice; details: day 60 after tumor injection; mGI-101 6 mg/kg i.p. BIW, DMXAA 450 μg I.T.; 5 mice per group
Procedure: In order to establish an allotransplanted tumor model, 5×10^5 of MC38 cells were subcutaneously injected into C57BL/6 mice. The tumor grafts of the mice were identified to be a size of 100-200 mm^3 about day 10 after cell inoculation, and the mice were assigned, each group including 5 mice.
The size of the MC38 solid cancer was measured three times a week during the observation period, and the major axis (maximum length, L) and minor axis (perpendicular width, W) of the tumor were measured using a caliper, and the tumor volume (TV) was calculated by substituting them into the following equation, and once the tumor size was no less than 2 cm, the mice were sacrificed. TV (mm^3)=(W^2×L)/2 [Equation 1]

4T1 cells = experiment: mGI-101 and Abemaciclib in 4T1 allotransplanted tumor model; format: in vivo, BALB/c mice; details: 11 mice per group
Procedure: 4T1 cells were purchased from ATCC (USA) and cultured in RPMI1640 medium (Gibco) containing 10% FBS (Gibco) and 1% antibiotic/antifungal agent (Gibco). The cultured cells were harvested using trypsin (Gibco) and then suspended in PBS. In order to establish an allotransplanted tumor model, 1×10^5 of 4T1 cells were subcutaneously injected into the back of BALB/c female mice (8-week-old).
A certain period of time after cell inoculation of the tumor grafts of the mice, the tumor volume was measured for animals with no abnormalities in the health condition of the animals, and the mice were randomly selected and assigned, each group including 11 mice.
The death of the mouse, the type of general symptoms, the date of onset, and the severity of symptoms were observed once a day during the test period, and recorded for each subject.
The tumor volume before administration of each subject was set as the value measured at the time of grouping, and the anti-tumor efficacy was evaluated as compared with the vehicle control.
All statistical calculations were performed using Prism 8.0 (Graph Pad Software Inc, USA). The comparison of tumor volume measurements was made through two-way analysis of variance followed by Tukey's multiple comparison test. A p value of less than 0.05 was considered significant.

[1] = day 42 vs day 21 after tumor transplantation, 8 animals per group

Substance | IFN-γ secretion (human PBMCs) | tumor growth (MDA-MB-231 cells; GI101 6 mg/kg, Keytruda 5 mg/kg, 4 administrations, compared with the control (hIgG4)) | number of mice with tumor growth inhibition rate of 30% or more (MDA-MB-231 cells; [1]) [mice] | number of mice with tumor growth inhibition rate of 50% or more (MDA-MB-231 cells; [1]) [mice] | number of mice with tumor growth inhibition rate of 80% or more (MDA-MB-231 cells; [1]) [mice] | survival rate (MC38 cells) [%] | number of mice with tumor growth inhibition rate of 30% or more (4T1 cells) [mice] | number of mice with tumor growth inhibition rate of 50% or more (4T1 cells) [mice] | number of mice with tumor growth inhibition rate of 80% or more (4T1 cells)
GI101: fusion protein: human CD80 fragment, Ig hinge, Fc domain, linker, IL-2 variant (2M) (R38A, F42A); SEQ ID NO: 9 | remarkable increase | tumor growth inhibition | 5 | 5 | 2 |  |  |  | 
mGI101: fusion protein: mouse CD80, Ig hinge, Fc domain, linker, IL-2 variant (2M) (R38A, F42A); SEQ ID NO: 15 |  |  |  |  |  | 20 | 3 | 1 | no mouse
